# Data published in PMC4149570 (PLoS ONE, 2014).
# “And” between values parts separate entries of the source, which are not always exact repeats. Equal entries are not always repeated. “Also recorded” adds a separate entry of the source. Where two headings read alike, the source gives them in different places.
# Tests used:
# [1] = target: T1, Y. pestis MEP synthase (Yersinia pestis, UniProt Q8ZH62); details: for IC50: read-out: IC50 (dose-response, Figure 9)
# [2] = target: T1, Y. pestis MEP synthase; assay: biochemical; details: for inhibition at 100 µM: read-out: inhibition of enzymatic activity (rational library screen)
# [3] = tested on: Y. pestis subsp. A1122; assay: microbe, parasite or virus in culture; type: cell-based, Yersinia pestis; details: for IC50: read-out: IC50 of Y. pestis growth (fractional growth, OD600)
# [4] = tested on: F. tularensis MEP synthase; details: cited from earlier work
# [5] = tested on: F. tularensis; details: read-out: activity of fosmidomycin with F. tularensis (half maximal growth inhibition); cited from earlier work
# [6] = target: Synechocytis sp PCC6803 MEP synthase; details: cited from earlier work
# [7] = tested on: MEP synthase; details: cited from earlier work
# [8] = tested on: E.coli MEP synthase; details: cited from earlier work
# [9] = Yersinia pestis, SUBSP.A1122, 24 h
# [10] = IC50 (enzyme preincubated with inhibitor, Figure 10)
# T1 sequence (Q8ZH62 whole entry, looked up): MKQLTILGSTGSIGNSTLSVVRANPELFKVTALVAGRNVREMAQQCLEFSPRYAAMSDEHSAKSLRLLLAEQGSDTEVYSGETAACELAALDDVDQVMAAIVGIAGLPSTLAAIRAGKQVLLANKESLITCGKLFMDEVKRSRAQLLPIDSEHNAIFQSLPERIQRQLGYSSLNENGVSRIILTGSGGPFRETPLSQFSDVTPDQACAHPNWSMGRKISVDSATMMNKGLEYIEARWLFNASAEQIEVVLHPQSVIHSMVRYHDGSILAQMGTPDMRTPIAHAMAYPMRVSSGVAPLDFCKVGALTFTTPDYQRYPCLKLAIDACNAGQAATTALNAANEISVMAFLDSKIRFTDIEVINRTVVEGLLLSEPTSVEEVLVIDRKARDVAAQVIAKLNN
structure (smiles),measurement,setting,value
CC(=O)N(CCCP(=O)(O)O)OCc1ccc(-c2ccccc2)cc1 [compound 13],IC50,[1],5110 nM
same,inhibition at 100 µM,[2],> 75%
CC(=O)N(CCCP(=O)(OCOC(=O)C(C)(C)C)OCOC(=O)C(C)(C)C)OCc1ccc(C(C)C)cc1 [compound 52],growth inhibitory activity towards Y. pestis liquid culture,[3],comparable to FR900098; also recorded: relatively poor inhibitory activity
"CC(C)=CCOP(=O)(O)OP(=O)(O)O [DMAPP, dimethylallyl pyrophosphate]",inhibition of Y. pestis MEP synthase (feedback inhibition test),[1],No enzyme inhibition was observed
O=CN(O)CCCP(=O)(O)O [fosmidomycin],IC50,[4]; read-out: IC50 fos,247 nM
same,Ki,[4]; read-out: Ki fos,98.9 ± 4.5 nM
same,IC50,[5],12100 nM
same,Ki,[6]; read-out: Ki fos,4 nM
same,mode of inhibition with respect to the binding of NADPH,[7],uncompetitive
same,Ki,[2],968 nM
same,IC50,[2]; IC50 fos,710 nM
same,IC50,[8]; read-out: IC50 fos,35 nM
same,Ki,[8]; read-out: Ki fos,21 to 215 nM
O=C(c1ccc2ccccc2c1)N(O)CCCP(=O)(O)O [compound 48],IC50,[1],9530 nM
same,inhibition at 100 µM,[2],> 75%
"CC1(C)S[C@@H]2[C@H](NC(=O)[C@H](N)c3ccccc3)C(=O)N2[C@H]1C(=O)O [ampicillin, reference compound]",IC50,[3]; [9],10.8 µM and 3.8 µg/mL
C[C@@]1(CO)OP(=O)(O)OP(=O)(O)OC[C@H]1O [compound 15],improvement of IC50 on preincubation with inhibitor,[1],approximately 3 fold
same,growth inhibitory activity towards Y. pestis liquid culture,[3],comparable to FR900098; also recorded: relatively poor inhibitory activity
same,IC50,"[2]; IC50 (dose-response, Figure 9)",4110 nM
same,IC50,[2]; [10],1190 nM
same,inhibition at 100 µM,[2],> 75%
"C=C(C)CCO[P@@](=O)(O)OP(=O)(O)O [IPP, isopentenyl pyrophosphate]",inhibition of Y. pestis MEP synthase (feedback inhibition test),[1],No enzyme inhibition was observed
C/C(=C\COP(=O)(O)OP(=O)(O)O)CO [compound 16],improvement of IC50 on preincubation with inhibitor,[1],~12 fold
same,mode of inhibition with respect to DXP,[1],competitive
same,mode of inhibition with respect to NADPH,[1],competitive
same,growth inhibitory activity towards Y. pestis liquid culture,[3],comparable to FR900098; also recorded: relatively poor inhibitory activity
same,IC50,"[2]; IC50 (dose-response, Figure 9)",4150 nM
same,IC50,[2]; [10],335 nM
same,inhibition at 100 µM,[2],> 75%
"CC(C)=CCC/C(C)=C/COP(=O)(O)OP(=O)(O)O [GPP, geranyl pyrophosphate]",inhibition of Y. pestis MEP synthase (feedback inhibition test),[1],No enzyme inhibition was observed
"CC(=O)N(O)CCCP(=O)(O)O [FR900098, reference compound]",mode of inhibition with respect to DXP,[1],competitive
same,mode of inhibition with respect to NADPH,[1],uncompetitive
same,IC50,[4]; read-out: IC50 FR900098,230 nM
same,IC50,[3]; [9],29 µM and 6.4 µg/mL
same,IC50,[3],29300 nM
same,Ki,[6]; read-out: Ki FR900098,2 nM
same,mode of inhibition relative to DXP,[7],competitive
same,mode of inhibition with respect to the binding of NADPH,[7],uncompetitive
same,Ki,[2],170 ± 7.1 nM
same,IC50,[2]; IC50 FR900098,231 nM
same,IC50,[8]; read-out: IC50 FR900098,35 nM
CCOP(=O)(CCCN(OCc1ccc(C(C)C)cc1)C(C)=O)OCC [compound 51],growth inhibitory activity towards Y. pestis liquid culture,[3],comparable to FR900098; also recorded: relatively poor inhibitory activity
Cc1ccc(C(=O)N(O)CCCP(=O)(O)O)cc1 [compound 42],IC50,[1],10800 nM
same,inhibition at 100 µM,[2],> 75%
